Test results published in ChEMBL document CHEMBL1201861, “Genomics of Drug Sensitity in Cancer screening data, Wellcome Trust Sanger Institute”.

Legend:
Experiment in all cases: cells
HCC1187 = type: functional, cell-based, Homo sapiens; conditions: Homo sapiens, HCC1187;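 further: growth inhibition of HCC1187 cells, read out with a cell viability assay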
Description: SANGER: Inhibition of human HCC1187 cell growth in a cell viability assay.

NB6 = type: functional, cell-based, Homo sapiens; conditions: Homo sapiens, NB6;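 further: growth inhibition of NB6 cells, read out by a cell viability assay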
Description: SANGER: Inhibition of human NB6 cell growth in a cell viability assay.

NCI-H1581 = type: functional, cell-based, Homo sapiens; conditions: Homo sapiens, NCI-H1581;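 further: cell growth inhibition read out by a viability assay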
Description: SANGER: Inhibition of human NCI-H1581 cell growth in a cell viability assay.

NCI-H2126 = type: functional, cell-based, Homo sapiens; conditions: Homo sapiens, NCI-H2126;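 further: growth inhibition of the cancer cell line, determined with a cell viability readout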
Description: SANGER: Inhibition of human NCI-H2126 cell growth in a cell viability assay.

GB-1 = type: functional, cell-based, Homo sapiens; conditions: Homo sapiens, GB-1;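 further: growth of GB-1 cells judged by a viability assay, IC50 marks the concentration inhibiting growth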
Description: SANGER: Inhibition of human GB-1 cell growth in a cell viability assay.

KINGS-1 = type: functional, cell-based, Homo sapiens; conditions: Homo sapiens, KINGS-1;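 further: cell viability assay measuring suppression of KINGS-1 cell growth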
Description: SANGER: Inhibition of human KINGS-1 cell growth in a cell viability assay.

697 = type: functional, cell-based, Homo sapiens; conditions: Homo sapiens
Description: SANGER: Inhibition of human 697 cell growth in a cell viability assay.

BB49-HNC = type: functional, cell-based, Homo sapiens; conditions: Homo sapiens, BB49-HNC;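 further: cell viability assay read-out, reported as inhibition of BB49-HNC cell growth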
Description: SANGER: Inhibition of human BB49-HNC cell growth in a cell viability assay.

KE-37 = type: functional, cell-based, Homo sapiens; conditions: Homo sapiens, KE-37;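 further: growth inhibition of KE-37 cells, read out with a cell viability assay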
Description: SANGER: Inhibition of human KE-37 cell growth in a cell viability assay.

EM-2 = type: functional, cell-based, Homo sapiens; conditions: Homo sapiens, EM-2;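 further: growth inhibition of EM-2 cells, read out with a cell viability assay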
Description: SANGER: Inhibition of human EM-2 cell growth in a cell viability assay.

TE-10 = type: functional, cell-based, Homo sapiens; conditions: Homo sapiens, TE-10;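 further: growth inhibition of TE-10 cells, measured by a cell viability assay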
Description: SANGER: Inhibition of human TE-10 cell growth in a cell viability assay.

GT3TKB = type: functional, cell-based, Homo sapiens; conditions: Homo sapiens, GT3TKB;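 further: growth inhibition of the cell line, read out with a cell viability assay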
Description: SANGER: Inhibition of human GT3TKB cell growth in a cell viability assay.

no-11 = type: functional, cell-based, Homo sapiens; conditions: Homo sapiens;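 further: growth inhibition of human NO-11 cells, read out with a cell viability assay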
Description: SANGER: Inhibition of human no-11 cell growth in a cell viability assay.

PSN1 = type: functional, cell-based, Homo sapiens; conditions: Homo sapiens, PSN1;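 further: suppression of growth of human PSN1 cells, read out by a cell viability assay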
Description: SANGER: Inhibition of human PSN1 cell growth in a cell viability assay.

NCI-H1092 = type: functional, cell-based, Homo sapiens; conditions: Homo sapiens, NCI-H1092;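 further: cell growth inhibition measured with a cell viability assay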
Description: SANGER: Inhibition of human NCI-H1092 cell growth in a cell viability assay.

NCI-H1395 = type: functional, cell-based, Homo sapiens; conditions: Homo sapiens, NCI-H1395;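 further: cell viability assay read-out quantifying reduced proliferation of human NCI-H1395 cells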
Description: SANGER: Inhibition of human NCI-H1395 cell growth in a cell viability assay.

BV-173 = type: functional, cell-based, Homo sapiens; conditions: Homo sapiens, BV-173
Description: SANGER: Inhibition of human BV-173 cell growth in a cell viability assay.

SF-539 = type: functional, cell-based, Homo sapiens; conditions: Homo sapiens, SF-539;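 further: Read-out is a cell viability assay, with IC50 reflecting inhibition of cell growth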
Description: SANGER: Inhibition of human SF539 cell growth in a cell viability assay.

COLO-668 = type: functional, cell-based, Homo sapiens; conditions: Homo sapiens, COLO-668
Description: SANGER: Inhibition of human COLO-668 cell growth in a cell viability assay.

ML-2 = type: functional, cell-based, Homo sapiens; conditions: Homo sapiens, ML-2;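 further: growth inhibition of ML-2 cells, measured with a cell viability readout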
Description: SANGER: Inhibition of human ML-2 cell growth in a cell viability assay.

VA-ES-BJ = type: functional, cell-based, Homo sapiens; conditions: Homo sapiens, VA-ES-BJ;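 further: growth inhibition of the VA-ES-BJ cell line, read out by a cell viability assay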
Description: SANGER: Inhibition of human VA-ES-BJ cell growth in a cell viability assay.

OCI-AML2 = type: functional, cell-based, Homo sapiens; conditions: Homo sapiens, OCI-AML2;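 further: growth inhibition of OCI-AML2 cells, read out with a cell viability assay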
Description: SANGER: Inhibition of human OCI-AML2 cell growth in a cell viability assay.

LB996-RCC = type: functional, cell-based, Homo sapiens; conditions: Homo sapiens, LB996-RCC
Description: SANGER: Inhibition of human LB996-RCC cell growth in a cell viability assay.

EW-3 = type: functional, cell-based, Homo sapiens; conditions: Homo sapiens, EW-3;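 further: cell viability assay read-out, IC50 reflects inhibition of growth of the EW-3 cells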
Description: SANGER: Inhibition of human EW-3 cell growth in a cell viability assay.

SNB-75 = type: functional, cell-based, Homo sapiens; conditions: Homo sapiens, SNB-75;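 further: cell viability assay measuring growth inhibition of human SNB-75 cells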
Description: SANGER: Inhibition of human SNB75 cell growth in a cell viability assay.

D-502MG = type: functional, cell-based, Homo sapiens; conditions: Homo sapiens, D-502MG
Description: SANGER: Inhibition of human D-502MG cell growth in a cell viability assay.

IST-MEL1 = type: functional, cell-based, Homo sapiens; conditions: Homo sapiens, IST-MEL1;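 further: growth inhibition of the cell line, read out with a cell viability assay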
Description: SANGER: Inhibition of human IST-MEL1 cell growth in a cell viability assay.

NCI-H526 = type: functional, cell-based, Homo sapiens; conditions: Homo sapiens, NCI-H526;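 further: growth inhibition of the human NCI-H526 cell line, measured by a cell viability assay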
Description: SANGER: Inhibition of human NCI-H526 cell growth in a cell viability assay.

RKO = type: functional, cell-based, Homo sapiens; conditions: Homo sapiens, RKO;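 further: growth inhibition of human RKO cells, read out with a cell viability assay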
Description: SANGER: Inhibition of human RKO cell growth in a cell viability assay.

ES5 = type: functional, cell-based, Homo sapiens; conditions: Homo sapiens, ES5;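 further: growth inhibition of human ES5 cells, read out by a cell viability assay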
Description: SANGER: Inhibition of human ES5 cell growth in a cell viability assay.

MN-60 = type: functional, cell-based, Homo sapiens; conditions: Homo sapiens, MN-60;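 further: growth inhibition of the MN-60 cell line, determined with a cell viability assay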
Description: SANGER: Inhibition of human MN-60 cell growth in a cell viability assay.

KARPAS-299 = type: functional, cell-based, Homo sapiens; conditions: Homo sapiens, KARPAS-299
Description: SANGER: Inhibition of human KARPAS-299 cell growth in a cell viability assay.

NCI-H720 = type: functional, cell-based, Homo sapiens; conditions: Homo sapiens, NCI-H720;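 further: growth inhibition of human NCI-H720 cells determined by a cell viability assay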
Description: SANGER: Inhibition of human NCI-H720 cell growth in a cell viability assay.

U-87 MG = type: functional, cell-based, Homo sapiens, U-87MG ATCC; conditions: Homo sapiens, U-87 MG;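 further: growth inhibition of the cells measured with a viability assay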
Description: SANGER: Inhibition of human U-87-MG cell growth in a cell viability assay.

NCI-H1650 = type: functional, cell-based, Homo sapiens; conditions: Homo sapiens, NCI-H1650;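 further: growth inhibition of human NCI-H1650 cells measured by a cell viability assay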
Description: SANGER: Inhibition of human NCI-H1650 cell growth in a cell viability assay.

MOLT-16 = type: functional, cell-based, Homo sapiens; conditions: Homo sapiens, MOLT-16;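 further: growth inhibition of human MOLT-16 cells, read out with a cell viability assay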
Description: SANGER: Inhibition of human MOLT-16 cell growth in a cell viability assay.

MFM-223 = type: functional, cell-based, Homo sapiens; conditions: Homo sapiens, MFM-223
Description: SANGER: Inhibition of human MFM-223 cell growth in a cell viability assay.

CTB-1 = type: functional, cell-based, Homo sapiens; conditions: Homo sapiens, CTB-1
Description: SANGER: Inhibition of human CTB-1 cell growth in a cell viability assay.

LS-123 = type: functional, cell-based, Homo sapiens; conditions: Homo sapiens, LS-123
Description: SANGER: Inhibition of human LS-123 cell growth in a cell viability assay.

K5 = type: functional, cell-based, Homo sapiens; conditions: Homo sapiens, K5
Description: SANGER: Inhibition of human K5 cell growth in a cell viability assay.

KG-1 = type: functional, cell-based, Homo sapiens; conditions: Homo sapiens, KG-1;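 further: growth inhibition of KG-1 cells, read out by a cell viability assay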
Description: SANGER: Inhibition of human KG-1 cell growth in a cell viability assay.

U-266 = type: functional, cell-based, Homo sapiens; conditions: Homo sapiens, U-266
Description: SANGER: Inhibition of human U-266 cell growth in a cell viability assay.

MOLT-4 = type: functional, cell-based, Homo sapiens; conditions: Homo sapiens, MOLT-4;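 further: growth inhibition of MOLT-4 cells, determined with a cell viability readout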
Description: SANGER: Inhibition of human MOLT-4 cell growth in a cell viability assay.

ATN-1 = type: functional, cell-based, Homo sapiens; conditions: Homo sapiens, ATN-1;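 further: growth inhibition of human ATN-1 cells, read out with a cell viability assay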
Description: SANGER: Inhibition of human ATN-1 cell growth in a cell viability assay.

NCI-H1770 = type: functional, cell-based, Homo sapiens; conditions: Homo sapiens, NCI-H1770;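 further: growth inhibition of NCI-H1770 cells determined with a viability readout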
Description: SANGER: Inhibition of human NCI-H1770 cell growth in a cell viability assay.

NOS-1 = type: functional, cell-based, Homo sapiens; conditions: Homo sapiens, NOS-1;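 further: growth inhibition of the human NOS-1 cell line, read out with a cell viability assay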
Description: SANGER: Inhibition of human NOS-1 cell growth in a cell viability assay.

BB30-HNC = type: functional, cell-based, Homo sapiens; conditions: Homo sapiens, BB30-HNC;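 further: growth inhibition of the cultured cell line, read out by a cell viability assay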
Description: SANGER: Inhibition of human BB30-HNC cell growth in a cell viability assay.

CC(C)C[C@H](NC(=O)[C@H](Cc1ccccc1)NC(=O)c1cnccn1)B(O)O [BORTEZOMIB]
IC50 (HCC1187): 3.54 nM | IC50 (NB6): 8.48 nM | IC50 (NCI-H1581): 12.3 nM | IC50 (NCI-H2126): 1.8 nM | IC50 (GB-1): 1.81 nM | IC50 (KINGS-1): 0.722 nM | IC50 697: 1.99 nM | IC50 (BB49-HNC): 0.652 nM | IC50 (KE-37): 2.13 nM | IC50 (EM-2): 1.16 nM | IC50 (TE-10): 1.03 nM | IC50 (GT3TKB): 2.12 nM | IC50 (no-11): 3.55 nM | IC50 (PSN1): 1.01 nM | IC50 (NCI-H1092): 1.8 nM | IC50 (NCI-H1395): > 20 nM | IC50 (BV-173): > 20 nM | IC50 (SF-539): > 20 nM | IC50 (COLO-668): > 20 nM | IC50 (ML-2): 0.821 nM | IC50 (VA-ES-BJ): 1.09 nM | IC50 (OCI-AML2): > 20 nM | IC50 (LB996-RCC): 3.4 nM | IC50 (EW-3): > 20 nM | IC50 (SNB-75): 0.912 nM | IC50 (D-502MG): 6.37 nM | IC50 (IST-MEL1): 0.917 nM | IC50 (NCI-H526): > 20 nM | IC50 (RKO): 1.06 nM | IC50 (ES5): 10.4 nM | IC50 (MN-60): 8.14 nM | IC50 (KARPAS-299): 3.06 nM | IC50 (NCI-H720): > 20 nM | IC50 (U-87 MG): 16.8 nM | IC50 (NCI-H1650): > 20 nM | IC50 (MOLT-16): 2.89 nM | IC50 (MFM-223): 17.9 nM | IC50 (CTB-1): 9.67 nM | IC50 (LS-123): 2.02 nM | IC50 (K5): 1.28 nM | IC50 (KG-1): 7.94 nM | IC50 (U-266): 1.76 nM | IC50 (MOLT-4): 2.13 nM | IC50 (ATN-1): 8.89 nM | IC50 (NCI-H1770): > 20 nM | IC50 (NOS-1): 2.11 nM | IC50 (BB30-HNC): 0.335 nM

Nc1ccccc1NC(=O)c1ccc(CNC(=O)OCc2cccnc2)cc1 [ENTINOSTAT]
IC50 (HCC1187): 4900 nM | IC50 (NB6): 3560 nM | IC50 (NCI-H1581): > 5000 nM | IC50 (NCI-H2126): > 5000 nM | IC50 (GB-1): 1940 nM | IC50 (KINGS-1): 4310 nM | IC50 697: 99.8 nM | IC50 (BB49-HNC): 2920 nM | IC50 (KE-37): 643 nM | IC50 (EM-2): 241 nM | IC50 (TE-10): > 5000 nM | IC50 (GT3TKB): 4330 nM | IC50 (no-11): > 5000 nM | IC50 (PSN1): 1420 nM | IC50 (NCI-H1092): 2050 nM | IC50 (NCI-H1395): > 5000 nM | IC50 (BV-173): 371 nM | IC50 (SF-539): 196 nM | IC50 (COLO-668): > 5000 nM | IC50 (ML-2): 2330 nM | IC50 (VA-ES-BJ): > 5000 nM | IC50 (OCI-AML2): 3630 nM | IC50 (LB996-RCC): 1470 nM | IC50 (EW-3): > 5000 nM | IC50 (SNB-75): > 5000 nM | IC50 (D-502MG): > 5000 nM | IC50 (IST-MEL1): 1180 nM | IC50 (NCI-H526): 635 nM | IC50 (RKO): 3770 nM | IC50 (ES5): > 5000 nM | IC50 (MN-60): 4110 nM | IC50 (KARPAS-299): 585 nM | IC50 (NCI-H720): 2170 nM | IC50 (U-87 MG): 3040 nM | IC50 (NCI-H1650): > 5000 nM | IC50 (MOLT-16): 410 nM | IC50 (MFM-223): > 5000 nM | IC50 (CTB-1): 3050 nM | IC50 (LS-123): 2350 nM | IC50 (K5): 470 nM | IC50 (KG-1): 1620 nM | IC50 (U-266): 2850 nM | IC50 (MOLT-4): 1030 nM | IC50 (ATN-1): 306 nM | IC50 (NCI-H1770): > 5000 nM | IC50 (NOS-1): 196 nM | IC50 (BB30-HNC): 1390 nM
